Tests used:
[1] = Selective extraction from a mixture of NaCl, CaCl2, SrCl2 and BaCl2; conditions: 0.1 Mol/L CEM2 in ASM2/ASM1 60/40 by volume, RT
Experimental: A brine containing a mixture of NaCl, CaCl2, SrCl2 and BaCl2 is made as described above. The dissolved salt concentrations are indicated in table VIII in mMol/L. The extraction was carried out a second time with changed divalent salt concentrations.
The extracting composition consists of 0.1 Mol/L of CEM2 and of a mixture of two ASMs. This mixture is composed of ASM2 which is usually referred to as [3,5-Bis(Trifluoromethyl)benzyl Alcohol] (35TFMBnOH) of CAS #: 32707-89-4, up to 60% by volume, and of ASM1, referred to as [3-(Trifluoromethyl)benzyl Alcohol](3TFMBnOH), of molecular formula C8H7F3O of MW=176.14 g/Mol and of CAS #: 349-75-7, up to 40% by volume, both serving as a fluidizing agent and as an ASM given its liquid form.
The extraction is carried out as described in example 1 and at room temperature.

[2] = Extraction isotherms of CaCl2 at room temperature and 80° C.; conditions: 0.1M CEM2 + 1M ASM9 in 12ClPh, Org./Water = 1
Experimental: Concerning the extraction or back extraction assays at a higher temperature, in particular at 60° C. or at 80° C., a magnetic stirring (at 500 revolutions per minute), for 2 hours, is carried out with an indirect thermostatically-controlled heating in a metal mold on a hotplate.
This series of examples aims to establish two extraction isotherms of CaCl2 at 20° C. and at 80° C. for an extracting composition including 0.1 Mol/L of CEM2, combined with 1 Mol/L of ASM9; the whole dissolved in 1,2-dichlorobenzene.
After carrying out the 7 specific extractions (duplicated) of salts, the amounts of extracted cations in relative molar percentage before and after extraction at room temperature and at water/extracting formulation iso-volume are indicated in table IV: […]
The same series of extractions was then carried out at 80° C. to give table V as follows: […]

[3] = Selective extraction from a binary mixture NaCl/CaCl2; conditions: for % E Ca^++ / % E Na^+: RT, molar %
Description: A brine containing an equimolar mixture of salts, 0.05 mol/L of NaCl and CaCl2 each, which was made as described above, was contacted with two extracting compositions, one of which according to the invention.
Each extracting composition comprises 0.1 mol/L of CEM
[drawing 53] and 2.4 mol/L of ASM9 in 1,2-dichlorobenzene.
A brine containing a mixture of NaCl and CaCl2 is made as described above to obtain the following initial saline concentrations in a mixture: 0.2 Mol/L of NaCl and 0.03 Mol/L of CaCl2. The extracting resin, is composed of 0.1 Mol/L of CEM2, 3.52 Mol/L of ASM2 and a complement of liquid ASM1, which is also used as a fluidizing agent.

[4] = 0.1 Mol/L CEM2 + 3.52 Mol/L ASM2 + complement of liquid ASM1, brine 0.2 Mol/L NaCl and 0.03 Mol/L CaCl2
[5] = 0.1 mol/L CEM + 2.4 mol/L ASM9 in 1,2-dichlorobenzene, brine 0.05 mol/L NaCl and CaCl2 each

## CCN(CC)C(=O)COc1c2cc(C(C)(C)C)cc1Cc1cc(C(C)(C)C)cc(c1OCC(=O)N(CC)CC)Cc1cc(C(C)(C)C)cc(c1OCC(=O)N(CC)CC)Cc1cc(C(C)(C)C)cc(c1OCC(=O)N(CC)CC)Cc1cc(C(C)(C)C)cc(c1OCC(=O)N(CC)CC)Cc1cc(C(C)(C)C)cc(c1OCC(=O)N(CC)CC)C2 [CEM2, 4-tert-butyl-Calix[6]arene hexakis(N,N-diethylacetamide)]
[1]; Table IX, initial 9.17
  Final Concentration Sr^2+: 0 mmol/L
[1]; Table IX, initial 9.17 mMol/L
  % extraction Sr^2+: 100%
[1]; Table IX, initial 9.25
  Final Concentration Ca^2+: 0 mmol/L
[1]; Table IX, initial 9.25 mMol/L
  % extraction Ca^2+: 100%
[1]; Table IX, initial 9.32
  Final Concentration Ba^2+: 0 mmol/L
[1]; Table IX, initial 9.32 mMol/L
  % extraction Ba^2+: 100%
[1]; Table IX, initial 196.04
  Final Concentration Na^+: 195.9835 mmol/L
[1]; Table IX, initial 196.04 mMol/L
  % extraction Na^+: 0%
[1]; Table IX, initial 245.4
  ANIONS Cl− Final Concentration: 203.16 mmol/L
[1]; Table VIII, initial 4.29
  Final Concentration Sr^2+: 0 mmol/L
[1]; Table VIII, initial 4.29 mMol/L
  % extraction Sr^2+: 100%
[1]; Table VIII, initial 4.69
  Final Concentration Ba^2+: 0 mmol/L
[1]; Table VIII, initial 4.69 mMol/L
  % extraction Ba^2+: 100%
[1]; Table VIII, initial 29.13
  Final Concentration Ca^2+: 0.4916 mmol/L
[1]; Table VIII, initial 29.13 mMol/L
  % extraction Ca^2+: 98%
[1]; Table VIII, initial 193.52
  Final Concentration Na^+: 199.4775 mmol/L
[1]; Table VIII, initial 193.52 mMol/L
  % extraction Na^+: 0%
[1]; Table VIII, initial 257.74
  ANIONS Cl− Final Concentration: 213.38 mmol/L
[2]; 0.01M
  Extraction rate at 80° C., CaCl2: 11%
  Extraction rate at room temperature (RT), CaCl2: 39%
[2]; 0.02M
  Extraction rate at 80° C., CaCl2: 16%
  Extraction rate at room temperature (RT), CaCl2: 42%
[2]; 0.03M
  Extraction rate at 80° C., CaCl2: 18%
  Extraction rate at room temperature (RT), CaCl2: 41%
[2]; 0.04M
  Extraction rate at 80° C., CaCl2: 17%
  Extraction rate at room temperature (RT), CaCl2: 40%
[2]; 0.1M
  Extraction rate at 80° C., CaCl2: 18%
  Extraction rate at room temperature (RT), CaCl2: 34%
[2]; 0.2M
  Extraction rate at 80° C., CaCl2: 16%
  Extraction rate at room temperature (RT), CaCl2: 27%
[2]; 0.4M
  Extraction rate at 80° C., CaCl2: 10%
  Extraction rate at room temperature (RT), CaCl2: 16%
[3]; [4]
  % E Ca^++: 88.0%
  % E Na^+: 5.0%
[3]; [5]
  % E Ca^++: 56.0%
  % E Na^+: 4.0%
[3]; 0.2 Mol/L NaCl and 0.03 Mol/L CaCl2 (example 7)
  Ratio of the Ca/Na extraction rates: 17.6
[3]; mixture with an iso-concentration of cations (example 6)
  Calcium to sodium extraction rate: 14 times

From patent publication US12623942B2, “Method for extracting salts and temperature- regenerated extracting composition” (ADIONICS, priority 2016, dated 2026)
